US8586571B2, “Heterocyclic compound” (Takeda Pharmaceutical Company Limited, priority 2007, dated 2013)

Tests used:
[1] = target: human RBP4 (Homo sapiens (Human), UniProt P02753); assay: Binding assay by Retinol-RBP4-TTR ELISA (human-type ELISA); settings: inhibition of binding of RBP4 with retinol and TTR; retinol 0.5 μM; read-out: human RBP4 binding inhibitory activity (IC50 nM)
Experimental: The action of the compound of the present invention to inhibit binding of RBP4 and retinol and TTR was evaluated using the Retinol-RBP4-TTR ELISA (human-type ELISA) system shown below.
Binding Assay by Retinol-RBP4-TTR ELISA
This ELISA system detects a complex of retinol, RBP4 and TTR by Streptoavidin-Biotin reaction.
His-tagged human RBP4 used was prepared in the above-mentioned 1C.
Biotinylate human TTR used was prepared in the above-mentioned 1E.
Streptavidin (20 μl) (10 μg/ml Streptavidin type II (Wako Pure Chemical Industries, Ltd.), 10 mM Tris-HCl (pH 7.5), 10 mM NaCl) was added to a 384 well black maxisorp plate (Nunc), and the plate was subjected to centrifugation (1000 rpm, 1 min) and coated overnight at 4° C. The plate was washed twice with PBST (PBS, 0.05% Tween 20, 100 μl/well) and blocked with 25% Block Ace (Snow Brand Milk Products Co., Ltd., PBS, 100 μl/well). The plate was subjected to centrifugation (1000 rpm, 1 min) and incubated at room temperature for 4 hr or overnight at 4° C. The plate was washed twice with PEST (PBS, 0.05% Tween 20, 100 μl/well), and biotinylated human TTR (stock solution concentration 1.3 mg/ml) diluted 1000-fold with PBST was added at 20 μl/well. The plate was subjected to centrifugation (1000 rpm, 1 min) and stood still at room temperature for 1.5 hr or overnight at 4° C. The plate was washed 3 times with PBST (100 μl/well), and His-tagged human RBP4 (stock solution concentration 0.96 mg/ml) diluted 4000-fold with a reaction buffer (50 mM Tris-HCl, 150 mM NaCl, 0.005% Tween 20, 1 mM DTT, 0.1% BSA) was added at 10 μl/well. The dilution series (8 doses from 10 mM, 200-fold concentration) of the compound was prepared with DMSO, and 1 μl of each was added to a reaction buffer (200 μl) containing retinol (0.5 μM) (Sigma-Aldrich Co.). A reaction buffer (200 μl) containing retinol and added with DMSO was used as a positive control, and reaction buffer (200 μl) free of retinol and added with DMSO was used as a negative control. Mixed solutions of retinol and the compound were added to the plate at 15 μl/well. The mixture was stirred in a platemixer subjected to centrifugation (1000 rpm, 1 min) and reacted at room temperature for 2 hr. A 35% Block Ace solution diluted with the reaction buffer was added at 10 μl/well, centrifuged (1000 rpm, 1 min) and reacted at room temperature for 30 min. The plate was washed 3 times with PBST (100 μl/well) and SuperSignal ELISA Femto Maximum Sensitivity Substrate reagent (PIERCE) was added at 30 μl/well, and the luminescence was measured by a platereader (Wallac).
The binding inhibitory rate of the compound was determined by 100×(test compound value-negative control value)/(positive control value-negative control value). The binding activity (IC50) was calculated from the binding inhibitory rate at each compound concentration using a graph drawing software, Prism (GraphPad Software Inc.).

[2] = system: Zucker fa/fa rat; assay: Anti-diabetes action using Zucker fa/fa rat (Takeda Pharmaceutical Company Limited); type: in vivo; settings: oral 30 mg/kg for 2 weeks
Experimental: An anti-diabetes action and a blood triglyceride (hereinafter TG)-lowering action of the compound of the present invention were evaluated using Zucker fa/fa rats.
Male 7-week-old Zucker fa/fa rats (Takeda Pharmaceutical Company Limited) were bred in group on CE-2 solid food (CLEA Japan, Inc.) until 7-week-old, thereafter bred on high-fat diet D06110702 (LSG Corporation) for acclimation under conditions with free access to food. At 11-week-old, the rats were grouped based on the body weight, blood glucose level, glycated hemoglobin level, blood RBP4 level and blood insulin level value (6 per group). Thereafter, the test compound (Example 143) was orally administered at a dose of 30 mg/kg (solvent: 0.5% methylcellulose solution (5 mL/kg)) for 2 weeks. The next day of the final administration of the compound, blood samples were collected from the tail vein, and plasma was separated. Using the collected plasma, (1) RBP4 concentration and (2) glycated hemoglobin level were measured. (1) was quantified according to the protocol described in Experimental Example 2. (2) was measured using Tosoh Corporation automatic glycohemoglobin analyzer (HLC-723 GHbV A1c2.2 or HLC-723G7 GHbV A1c2.2).
A 0.5% methylcellulose solution (5 mL/kg) was orally administered to the control group. […] The results are shown in the is following in mean±standard deviation (n=6). In the following Table, glycated hemoglobin change is obtained by subtracting the value before administration from that after administration.

[3] = target: RBP4 (Mus musculus (Mouse), UniProt Q00724); assay: Blood RBP4 lowering action in C57BL/6J mouse (plasma RBP4 by ELISA); type: in vivo; settings: mean±SD (n=5); for RBP4 (% of initial/Control) 4 hr later: 4 hr after single oral 50 mg/kg; for RBP4 (% of initial/Control) 7 hr later: 7 hr after single oral 50 mg/kg; for RBP4 (% of initial/Control) 24 hr later: 24 hr after single oral 50 mg/kg
Experimental: A blood RBP4 lowering action of the compound of the present invention was evaluated using C57BL/6J mouse.
Male 7- to 15-week-old C57BL/6J mice (Charles River Laboratories Japan Inc.) were individually bred for acclimation for 4-6 days under conditions with free access to CE-2 solid food (CLEA Japan, Inc.), and grouped based on the body weight (5 per group). The next day of grouping, blood samples were collected from the orbital venous plexus, and plasma was separated (0 hr value). Thereafter, the test compounds (Examples 12, 143, 164, 189, 197, 207 and 215) were orally administered at a dose of 50 mg/kg (solvent: 0.5% methylcellulose solution (10 mL/kg)). At 4, 7 and 24 hr after administration of the compounds, blood samples were collected from the orbital venous plexus, and plasma was separated. A 0.5% methylcellulose solution (10 mL/kg) was orally administered to the control group.
The RBP4 level of the collected plasma was measured by ELISA. RBP4 was quantified by the following steps using a rabbit anti-mouse RBP4 polyclonal antibody (Hokudo Co., Ltd). A 96 well ELISA plate was coated with 50 μg/mL of the antibody (100 μL) and stood at 4° C. overnight. After blocking with BlockAce (DAINIPPON PHARMACEUTICAL CO., LTD.), mouse RBP4 or a sample (100 μL) was added and the plate was stood at room temperature for 2 hr. After washing with PBS-0.5% Tween 20, HRP-labeled anti-RBP4 antibody (prepared by labeling RBP4 polyclonal antibody (Hokudo Co., Ltd) with HRP (DOJINDO LABORATORIES)) was added by 100 μL, and the plate was stood at room temperature for 1 hr. After washing, TMB (Dako Cytomations) was added, and the mixture was stood at room temperature for 20 min to allow color development, and the reaction was quenched with 2N sulfuric acid. Thereafter, the absorbance at A450 nm was measured on a platereader. The amount of change from the initial value of each animal was determined as a relative value from the control group (% of initial/Control) at each time point. The results are shown in the following in mean±standard deviation (n=5).

Compound | IC50 [1] | RBP4 (% of initial/Control) 4 hr later [3] | RBP4 (% of initial/Control) 7 hr later [3] | RBP4 (% of initial/Control) 24 hr later [3] | other results
CC(C)(C)c1ccccc1OC1CN(C(=O)CC(=O)O)C1 [Example 10, 3-(3-(2-tert-butylphenoxy)azetidin-1-yl)-3-oxopropanoic acid] | 36 nM |  |  |  | 
CC(C)(C)c1ccccc1OC1CN(C(=O)C2(C(=O)O)CC2)C1 [Example 14, 1-(3-(2-tert-butylphenoxy)azetidine-1-carbonyl)cyclopropanecarboxylic acid] | 24 nM |  |  |  | 
CC(C)(C)c1ccccc1S(=O)(=O)C1CN(C(=O)c2ccccc2)C1 [Example 20, (3-(2-tert-butylphenylsulfonyl)azetidin-1-yl)(phenyl)methanone] | 290 nM |  |  |  | 
CC(C)(C)c1cc(F)ccc1OC1CN(C(=O)CCC(=O)O)C1 [Example 80, 4-[3-(2-tert-butyl-4-fluorophenoxy)azetidin-1-yl]-4-oxobutanoic acid] | 20 nM |  |  |  | 
CCCCCS(=O)(=O)NC(=O)C(=O)N1CCC(COc2ccccc2C(C)(C)C)CC1 [Example 121, 2-{4-[(2-tert-butylphenoxy)methyl]piperidin-1-yl}-2-oxo-N-(pentylsulfonyl)acetamide] | 790 nM |  |  |  | 
CC(C)(C)c1cc(F)ccc1OCC1CN(C(=O)CC(=O)O)C1 [Example 143, 3-{3-[(2-tert-butyl-4-fluorophenoxy)methyl]azetidin-1-yl}-3-oxopropanoic acid] | 23 nM | 46.7 ± 6.6 % of initial/Control | 36.2 ± 4.2 % of initial/Control | 45.2 ± 9.1 % of initial/Control | blood RBP4 concentration (result in words) ([2]; versus control): significant decrease; glycated hemoglobin (result in words) ([2]; versus control): significant decrease; RBP4 ([2]; plasma, high-fat diet, mean±SD (n=6)): 7.3 ± 1.2 µg/mL; glycated hemoglobin change(%) ([2]; value after minus before administration, mean±SD (n=6)): 0.6 ± 0.4%
CC(C)(C)c1cc(Cl)ccc1OC1CN(C(=O)CCC(=O)O)C1 [Example 189, 4-[3-(2-tert-butyl-4-chlorophenoxy)azetidin-1-yl]-4-oxobutanoic acid] | 71 nM | 51.5 ± 1.7 % of initial/Control | 42.1 ± 1.3 % of initial/Control | 69.7 ± 9.6 % of initial/Control | 
CC(C)(C)c1ccccc1OCC1CCN(C(=O)CC(=O)O)C1 (stereo not drawn) [Example 197, 3-{3-[(2-tert-butylphenoxy)methyl]pyrrolidin-1-yl}-3-oxopropanoic acid] | 40 nM | 39.2 ± 1.4 % of initial/Control | 29.2 ± 1.0 % of initial/Control | 40.4 ± 3.0 % of initial/Control | 
CC(C)(C)c1cc(F)ccc1OCC1CCN(C(=O)CC(=O)O)C1 (stereo not drawn) [Example 215, 3-{3-[(2-tert-butyl-4-fluorophenoxy)methyl]pyrrolidin-1-yl}-3-oxopropanoic acid] | 34 nM | 64.3 ± 1.2 % of initial/Control | 60.6 ± 0.6 % of initial/Control | 64.7 ± 4.3 % of initial/Control | 

More lines, in order of falling IC50 [1], values ahead:

IC50 [1] | RBP4 (% of initial/Control) 4 hr later [3] | RBP4 (% of initial/Control) 7 hr later [3] | RBP4 (% of initial/Control) 24 hr later [3] | Compound | other results
20 nM |  |  |  | CC(C)(C)c1cc(F)ccc1OC1CN(C(=O)c2ccccn2)C1 [Example 6, (3-(2-tert-butyl-4-fluorophenoxy)azetidin-1-yl)(pyridin-2-yl)methanone] | 
15 nM | 55.6 ± 6.3 % of initial/Control | 46.4 ± 7.2 % of initial/Control | 74.5 ± 8.9 % of initial/Control | CC(C)(C)c1cc(Cl)ccc1OC1CN(C(=O)c2ccccn2)C1 [Example 164, 2-{[3-(2-tert-butyl-4-chlorophenoxy)azetidin-1-yl]carbonyl}pyridine] | 
12 nM | 55.6 ± 1.0 % of initial/Control | 49.0 ± 1.3 % of initial/Control | 69.5 ± 6.6 % of initial/Control | CC(C)(C)c1cc(Cl)ccc1OCC1CN(C(=O)C(=O)O)C1 [Example 207, {3-[(2-tert-butyl-4-chlorophenoxy)methyl]azetidin-1-yl}(oxo)acetic acid] | 
10 nM |  |  |  | CC(C)(C)c1ccccc1SC1CN(C(=O)c2ccccn2)C1 [Example 17, (3-(2-tert-butylphenylthio)azetidin-1-yl)(pyridin-2-yl)methanone] | 
5 nM |  |  |  | CC(C)(C)c1ccccc1OC1CCN(C(=O)c2ccccn2)CC1 [Example 50, (4-(2-tert-butylphenoxy)piperidin-1-yl)(pyridin-2-yl)methanone] | 
